Data published in patent publication US20030180385A1 (priority 2002, published 2003).
Where two headings read alike, the source gives them in different places. Marks after values point to notes of the source that are not given here.

Legend:
barley seeds = conditions: in vivo
Fusarium graminearum = type: cell-based; conditions: for % of Fusarium graminearum: barley var. Lacey
bacteria = type: cell-based
[1] = 8 hours steeping
Alternaria spp. = type: cell-based; conditions: barley var. Lacey
[2] = DON variation during the malting process; conditions: for % DON reduction: H process
Method: The goal of this experiment was to follow the main steps of malt production for DON increase or decrease when barley seeds were submitted to the hypochlorite process during the first steeping, compared with the same seed not submitted to the hypochlorite process. Two samples of 1000 grams of barley seeds infected with 3.2 ppm of DON were malted and their DON contents were measured during the following steps:
1. On 50 grams of seeds just after the first steeping (7 hours steep)
2. On 50 grams of seeds just after the second steeping (5 hours steep)
3. On 50 grams of seeds on the second day of malting (half malting)
4. On 50 grams of seeds on the fourth day of malting (end of malting)
5. On 50 grams of seeds after the fist step of kilning (6 hours at 45° C.)
6. On 50 grams of seeds after the second step of kilning (3 hours at 65° C.)
7. On 50 grams of seeds after the third step of kilning (2 hours at 85° C.)
8. Control (dry seeds without treatment).

Fusarium = conditions: literature reports; cited from earlier work
[3] = wheat seeds; 1% concentration; cited from earlier work
[4] = Table 6, means of 50 seeds plated in ¼ PDA medium

Structure (SMILES)	Germin. (%) (barley seeds)	Bacteria (%) (bacteria)	Fusarium (%) (Fusarium graminearum)	% Germination (barley seeds) [%]	% Bacteria (bacteria) [%]	other results
CC(=O)O [Ac. Ac. Glacial 0.5, glacial acetic acid]	8	2	–	–	–	Fusarium (%) (Fusarium graminearum; Table 4, 8 hours steeping): 4%; Total % of DON reduction ([1]; Table 4): 62.9%; DON ([1]; Table 4, dry seeds 9.7): 3.6 µg/mL
CC(=O)O [Ac. Ac. Glacial 0.25%, glacial acetic acid]	64	6	–	–	–	Fusarium (%) (Fusarium graminearum; Table 4, 8 hours steeping): 2%; Total % of DON reduction ([1]; Table 4): 71.1%; DON ([1]; Table 4, dry seeds 9.7): 2.8 µg/mL
CC(=O)O [Ac. Ac. Glacial 1.0, glacial acetic acid]	0	0	–	–	–	Fusarium (%) (Fusarium graminearum; Table 4, 8 hours steeping): 2%; Total % of DON reduction ([1]; Table 4): 71.1%; DON ([1]; Table 4, dry seeds 9.7): 2.8 µg/mL
CC(=O)OO [Ac. Perac. 0.1%, peracetic acid]	94	48	56%	–	–	–
CC(=O)OO [Ac. Perac. 0.5%, peracetic acid]	28	28	4%	–	–	–
CC(=O)OO [Ac. Perac. 0.25%, peracetic acid]	76	62	2%	–	–	–
CC(=O)OO [Ac. Perac. 1.0%, peracetic acid]	0	4	4%	–	–	–
CC(=O)OO [Ac. Perac. 2.0%, peracetic acid]	0	0	2%	–	–	–
CCO [Alco. 1%, Alcohol]	72	94	94%	–	–	–
CCO [Alco. 10%, Alcohol]	2	100	44* %	–	–	–
CCOC(C)=O [Eth. Ac. 1%, Ethyl Acetate]	6	90	–	–	–	Fusarium (%) (Fusarium graminearum; Table 3, 8 hours steeping): 88%; Total % of DON reduction ([1]; Table 3): 68%; DON ([1]; Table 3, dry seeds 10.9): 3.5 µg/mL
CCOC(C)=O [Eth. Ac. 10%, Ethyl Acetate]	0	4	–	–	–	Fusarium (%) (Fusarium graminearum; Table 3, 8 hours steeping): 0%; Total % of DON reduction ([1]; Table 3): 70%; DON ([1]; Table 3, dry seeds 10.9): 3.3 µg/mL
OO [H2O2 1.0%, peroxide]	94	47	38%	–	–	–
OO [H2O2 3.0%, peroxide]	92	62	20%	–	–	–
OCl [Hypochlorite 0.8%, hypochlorite]	80	2	–	88	0	Fusarium (%) (Fusarium graminearum; Table 4, 8 hours steeping): 2%; % Fusarium (Fusarium graminearum; [4]): 8%; % of Fusarium graminearum (Fusarium graminearum; 2 min. disinfestations): 20%; % of Fusarium graminearum (Fusarium graminearum; 3 min. disinfestations): 18%; Total % of DON reduction ([1]; Table 4): 87.6%; DON ([1]; Table 4, dry seeds 9.7): 1.2 µg/mL; % of Alternaria spp. (Alternaria spp.; 2 min. disinfestations): 66%; % of Alternaria spp. (Alternaria spp.; 3 min. disinfestations): 68%
[K+].[OH-] [KOH (0.5%), potassium hydroxide]	–	–	–	96	44	% Fusarium (Fusarium graminearum): 44%
[K+].[OH-] [KOH (0.25%), potassium hydroxide]	–	–	–	94	82	% Fusarium (Fusarium graminearum): 76%
O=P([O-])([O-])O.[Na+].[Na+] [Na2HPO4 (0.5%), sodium phosphate dibasic]	–	–	–	94	72	% Fusarium (Fusarium graminearum; [4]): 70%
O=P([O-])([O-])O.[Na+].[Na+] [Na2HPO4 (0.25%), sodium phosphate dibasic]	–	–	–	98	68	% Fusarium (Fusarium graminearum; [4]): 68%
O=C([O-])O.[Na+] [NaHCO3 (0.5%), sodium bicarbonate]	–	–	–	88	84	% Fusarium (Fusarium graminearum; [4]): 72%
O=C([O-])O.[Na+] [NaHCO3 (0.25%), sodium bicarbonate]	–	–	–	90	70	% Fusarium (Fusarium graminearum; [4]): 52%
[Na+].[OH-] [NaOH 0.1%, sodium hydroxide]	76	74	76%	–	–	–
[Na+].[OH-] [NaOH 0.5%, sodium hydroxide]	88	50	68%	96	8	% Fusarium (Fusarium graminearum): 40%
[Na+].[OH-] [NaOH 0.25%, sodium hydroxide]	96	80	88%	94	44	% Fusarium (Fusarium graminearum): 44%
[Na+].[OH-] [NaOH 1.0%, sodium hydroxide]	66	6	2%	–	–	–
[Cl-].[Na+] [Salt 1%, NaCl]	72	76	–	–	–	Fusarium (%) (Fusarium graminearum; Table 3, 8 hours steeping): 90%; Total % of DON reduction ([1]; Table 3): 71%; DON ([1]; Table 3, dry seeds 10.9): 3.1 µg/mL
[Cl-].[Na+] [Salt 5%, NaCl]	80	78	–	–	–	Fusarium (%) (Fusarium graminearum; Table 3, 8 hours steeping): 84%; Total % of DON reduction ([1]; Table 3): 77%; DON ([1]; Table 3, dry seeds 10.9): 2.5 µg/mL
OCl [hypochlorite]	–	–	–	–	–	DON levels on "H" process (b) ([2]; 1. After the first steeping, seeds with 3.2 ppm DON): 0.7 ppm; DON levels on "H" process (b) ([2]; 2. After the second steeping): 0.4 ppm; DON levels on "H" process (b) ([2]; 3. Second day of malting): 0.4 ppm; DON levels on "H" process (b) ([2]; 4. Fourth day of malting): 0.4 ppm; DON levels on "H" process (b) ([2]; 5. Fist step of kilning): 0.3 ppm; DON levels on "H" process (b) ([2]; 6. Second step of kilning): 0.3 ppm; DON levels on "H" process (b) ([2]; 7. Third step of kilning): 0.4 ppm; % DON reduction ([2]; 1. After the first steeping): 78.1%; % DON reduction ([2]; 2. After the second steeping): 87.5%; % DON reduction ([2]; 3. Second day of malting): 87.5%; % DON reduction ([2]; 4. Fourth day of malting): 87.5%; % DON reduction ([2]; 5. Fist step of kilning): 90.6%; % DON reduction ([2]; 6. Second step of kilning): 90.6%; % DON reduction ([2]; 7. Third step of kilning): 87.5%; Fusarium reduction from seeds (Fusarium): ≤ 50%
OCl [sodium hypochlorite]	–	–	–	–	–	increase of the level of the toxin (DON) [3]: 24%; level of the toxin (DON) after treatment [3]: 1.24 ppm
